Calls of active or inactive are those of the source.
How the values were obtained:
H9c2 = experiment: cells; format: functional, cell-based; details: Rattus norvegicus, H9c2, Myocardium;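 note: confirmatory concentration-response retest of ultra-high-throughput screening hits for modulation of myocardial damage; cell death induced by hydrogen peroxide oxidative stress; compound pretreatment for 60 min then peroxide exposure for 2 h; potency is for protecting the cells against peroxide damage rather than for killing them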
cells [1] = format: functional, cell-based
cells [2] = format: functional, cell-based; remark: listed apart in the source
[3] = Vero E6 cell cytotoxicity, dose response, cytotoxicity control for non-replicating M. tuberculosis project, secondary assay (AID 492998); format: functional, VeroE6; details: Vero C1008
cells [4] = format: functional
[5] = THP-1 cell cytotoxicity, dose response, cytotoxicity control for non-replicating M. tuberculosis project (AID 489025); format: functional
[6] = target: Heat shock protein HSP 90-alpha (Homo sapiens, UniProt P07900); format: functional, organism-based
Streptococcus = experiment: Group A Streptococcus viability loss, dose response, counter-screen for streptokinase expression inhibitor project, luminescence, BacTiterGlo (AID 1915); format: functional, organism-based;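 note: potency for reduction of bacterial viability or growth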
[7] = C. albicans growth with fluconazole, confirmation, fluorescence, retest (AID 2467); format: functional, cell-based
[8] = NIH-3T3 fibroblast cytotoxicity, dose response, cytotoxicity control, cell-based, fluorescence, Alamar Blue, secondary assay (AID 2327); format: functional;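 note: NIH-3T3 mouse fibroblasts cultured with fluconazole at 8 µg/mL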
[9] = tested on: Streptococcus sp. 'group A'; experiment: growth inhibition of control SK(-) GAS strain, dose response, counter-screen for streptokinase expression inhibitor project, luminescence, kanamycin, BacTiterGlo, confirmation (AID 1900); format: functional, organism-based
Streptokinase A = target: T1, Streptokinase A (Streptococcus pyogenes serotype M1, UniProt P10520); experiment: S. pyogenes streptokinase expression inhibitors, potency, dose response, plasminogen activation absorbance, OD405 (AID 1914); format: functional, Streptococcus pyogenes M1 GAS;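 note: secreted streptokinase activity via plasminogen activation per viability signal from cell pellet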
T1 sequence (P10520 whole entry): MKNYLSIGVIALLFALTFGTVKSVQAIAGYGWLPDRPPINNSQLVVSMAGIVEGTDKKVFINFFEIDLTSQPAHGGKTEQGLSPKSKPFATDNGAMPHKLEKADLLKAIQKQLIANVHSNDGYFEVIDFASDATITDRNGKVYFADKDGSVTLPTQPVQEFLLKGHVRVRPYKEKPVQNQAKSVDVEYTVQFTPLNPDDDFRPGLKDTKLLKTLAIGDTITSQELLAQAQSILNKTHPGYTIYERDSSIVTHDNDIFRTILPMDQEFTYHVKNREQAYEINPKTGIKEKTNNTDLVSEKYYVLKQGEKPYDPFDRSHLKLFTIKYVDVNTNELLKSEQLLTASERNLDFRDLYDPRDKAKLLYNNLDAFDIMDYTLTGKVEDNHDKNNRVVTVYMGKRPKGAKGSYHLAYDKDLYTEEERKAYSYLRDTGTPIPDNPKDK

[10] = target: FAD-linked sulfhydryl oxidase ALR (Homo sapiens, UniProt P55789); experiment: inhibitors of human ALR sulfhydryl oxidase, dose response, biochemical, H2O2 detection, luminescence, cherry-pick (AID 493248)
Sequence of FAD-linked sulfhydryl oxidase ALR (P55789 whole entry): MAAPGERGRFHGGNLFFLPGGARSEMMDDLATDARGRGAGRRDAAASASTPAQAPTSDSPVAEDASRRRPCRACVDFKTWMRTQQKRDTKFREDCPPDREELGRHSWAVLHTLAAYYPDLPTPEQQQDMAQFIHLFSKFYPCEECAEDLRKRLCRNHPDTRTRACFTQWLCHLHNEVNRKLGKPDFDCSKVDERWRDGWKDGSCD

[11] = target: T2, Ubiquitin-conjugating enzyme E2 N (Homo sapiens, UniProt P61088); format: functional;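 note: Dose-response confirmation in a TR-FRET assay detecting UBC13-driven polyubiquitin chain formation, inhibition measured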
T2 sequence (P61088 whole entry): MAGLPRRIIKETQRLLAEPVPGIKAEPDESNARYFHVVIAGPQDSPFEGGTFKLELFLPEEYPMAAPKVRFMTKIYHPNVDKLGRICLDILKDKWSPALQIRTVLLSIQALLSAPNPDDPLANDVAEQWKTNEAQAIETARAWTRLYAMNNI

[12] = cytotoxicity toward NIH3T3 fibroblasts, dose response, counter-screen, cell-based, ATP luminescence, mouse fibroblasts (AID 2010); format: functional;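 note: cells exposed to compound for about 90 hours before reading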
[13] = inhibitors of intracellular T. cruzi replication, confirmation, NIH3T3 host cells, beta-gal luminescence (AID 2044); format: functional, cell-based;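 note: intracellular parasites grown in NIH/3T3 mouse fibroblasts as host cells; luminescent beta-galactosidase reporter signal from transgenic T. cruzi replicating inside host cells; inhibitors lower the luminescence signal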
[14] = target: T3, Heat shock factor protein 1 (Mus musculus, UniProt P38532); experiment: HSF1 potentiators in luciferase reporter cells, confirmation, cell-based, NIH3T3, luminescence, dose retest (AID 435004); format: functional;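 note: stress induced by proteasome inhibitor MG132 added 30 min after compound; luciferase reporter driven by HSF1 response element in NIH3T3 cells; actives raise luminescence as potentiators of the MG132 stress response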
T3 sequence (P38532 whole entry): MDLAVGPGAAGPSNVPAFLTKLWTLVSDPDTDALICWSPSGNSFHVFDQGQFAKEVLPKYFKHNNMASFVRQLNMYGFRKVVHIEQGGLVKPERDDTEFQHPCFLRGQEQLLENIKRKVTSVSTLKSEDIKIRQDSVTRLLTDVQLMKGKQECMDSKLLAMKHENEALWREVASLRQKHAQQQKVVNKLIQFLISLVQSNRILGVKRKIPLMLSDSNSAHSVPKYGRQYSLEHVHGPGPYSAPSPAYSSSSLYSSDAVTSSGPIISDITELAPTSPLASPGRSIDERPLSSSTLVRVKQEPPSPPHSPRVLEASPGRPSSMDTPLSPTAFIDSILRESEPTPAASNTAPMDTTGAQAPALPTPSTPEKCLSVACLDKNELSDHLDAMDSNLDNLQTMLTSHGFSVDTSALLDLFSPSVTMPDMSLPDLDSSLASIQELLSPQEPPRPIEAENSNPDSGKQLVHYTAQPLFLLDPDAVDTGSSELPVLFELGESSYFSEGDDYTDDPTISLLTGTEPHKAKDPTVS

CC(=O)Nc1cccc(-c2cc(NC(C)=O)c3ncc(-c4ccccc4)n3c2)c1
IC50 (H9c2): > 79 µM (inactive)

Cc1cc(NC(=O)CCN2C(=O)/C(=C\c3ccccc3)SC2=S)no1
EC50 (cells [1]): > 350 µM (not active) | EC50 (cells [2]): > 350 µM (not active)

O=C1NC(=O)N(Cc2ccccc2Cl)C(=O)/C1=C/c1ccc[nH]1
CC50 [3]: 9.48 µM (active) | IC50 (cells [4]): 1.04 µM (active) | CC50 [5]: 9.35 µM (active)

CC1Oc2cc3oc4c(O)c(O)ccc4c(=O)c3c(O)c2C1(C)C (configuration not stated) [TOXYLOXANTHONE C]
AC50 [6]: 38 µM (active) | EC50 (Streptococcus): 8.07 µM (active) | EC50 [7]: > 38 µM (not active) | EC50 [8]: > 150 µM (inactive) | EC50 [9]: 5.91 µM (active) | EC50 (Streptokinase A): > 150 µM (not active)

COc1cc(-c2cc(NC(C)=O)c3ncc(-c4ccc(C(C)=O)cc4)n3c2)cc(OC)c1OC
IC50 (H9c2): > 79 µM (inactive)

CSc1ccccc1OCc1cc(C(=O)N2CCN(C)C(c3ccccc3)C2)no1 (configuration not stated)
AC50 [6]: 1.64 µM (active)

O=C(NCN1CCN(c2ccccc2)CC1)c1cnccn1
AC50 [10]: 4.03 µM (active)

O=C(CCN1CCN(c2ccccc2)CC1)N/N=C/c1ccccc1O
EC50 (cells [1]): > 350 µM (not active) | EC50 (cells [2]): 91.8 µM (active)

CNCC(O)c1cc(F)c(OCc2ccccc2)c(OCc2ccccc2)c1F (configuration not stated)
IC50 [11]: > 20 µM (inactive)

Cc1occc1-c1nnc(-c2cc([N+](=O)[O-])cc([N+](=O)[O-])c2)o1
AC50 [6]: 2.74 µM (active) | EC50 [12]: > 60 µM (not active) | EC50 [13]: 0.277 µM (active) | IC50 (cells [4]): 1.37 µM (active)

O=C(Cn1[nH]c(=O)c2ccccc2c1=O)OCC(=O)N(Cc1ccccc1)Cc1ccccc1
IC50 (H9c2): 36 µM (inactive)

CCn1c(S)nnc1CCn1c2ccccc2c2ccccc21
AC50 [10]: > 100 µM (inactive)

COc1ccc(N2C(=O)CSC2c2ccncc2)cc1 (configuration not stated)
AC50 [10]: 0.124 µM (active) | EC50 [14]: > 260 µM (inactive)

O=S(=O)(NC1CC2CCC1C2)c1ccc(Br)cc1 (configuration not stated)
AC50 [6]: 1.6 µM (active)

CC(C)N1CCc2c(sc(NC(=O)c3ccc(S(=O)(=O)N4CCc5ccccc54)cc3)c2C(N)=O)C1
IC50 [11]: > 20 µM (inactive)

O=C1N[C@H]2CC=C[C@H]2Nc2ccccc21
IC50 (H9c2): 44.8 µM (inactive)

Cc1ccc(NC2CCCN(C(=O)CCc3ccncc3)C2)cc1C (configuration not stated)
EC50 [12]: > 60 µM (not active) | AC50 [10]: 2.7 µM (active) | EC50 [13]: 1.15 µM (active)

O=C(NC(O)C(=O)c1cccs1)c1cccnc1 (configuration not stated)
IC50 (H9c2): > 79 µM (inactive)

O=C(NC1CCCCC1)c1nc(O)c2nnn(Cc3ccccc3Cl)c2n1
CC50 [3]: 19.9 µM (active) | IC50 (cells [4]): 29.9 µM (active) | CC50 [5]: > 40 µM (active)

COc1cc(OC)c(-c2nn3c(-c4ccco4)nnc3s2)cc1OC
IC50 (H9c2): > 79 µM (inactive)
